What was measured:
Conditions in all cases: compound at 10 μM
Dopamine D4.7 Receptor = assay: Radioligand binding, [3H] Spiperone; parameters: species or system Human
Protocol: (§1) Compounds of the invention were subjected to specific binding assays to test their ability to bind to the receptors and transporter proteins described below.
(j) Dopamine D4.7 Receptor:
• Reference: Van Tol et al., Nature, 350:610-614 (1991) • Source: Human recombinant CHO-K1 cells • Ligand: 1.5 nM [^3H]

Dopamine D3 Receptor = biological target: T1, Dopamine D3 Receptor (Homo sapiens, UniProt P35462); assay: Radioligand binding, [3H] Spiperone
T1 construct: expressed in transfected cells; host or cells: CHO cells
T1 sequence (P35462 whole entry): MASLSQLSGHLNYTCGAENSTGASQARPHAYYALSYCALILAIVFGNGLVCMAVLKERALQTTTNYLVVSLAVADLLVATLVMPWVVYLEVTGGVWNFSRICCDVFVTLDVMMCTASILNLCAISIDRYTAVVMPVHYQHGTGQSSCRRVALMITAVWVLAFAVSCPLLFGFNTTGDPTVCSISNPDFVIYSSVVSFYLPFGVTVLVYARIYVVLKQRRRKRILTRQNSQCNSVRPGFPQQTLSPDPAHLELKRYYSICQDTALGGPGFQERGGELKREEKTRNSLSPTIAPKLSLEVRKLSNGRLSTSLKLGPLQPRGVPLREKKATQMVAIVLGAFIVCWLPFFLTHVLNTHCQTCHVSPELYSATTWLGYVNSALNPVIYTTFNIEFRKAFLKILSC
Protocol: as §1
(g) Dopamine D3 Receptor:
• Reference: Sokoloff et al., Nature, 347:146-151, (1990) • Source: Human recombinant CHO cells • Ligand: 0.7 nM [3H]

Adrenergic α2A Receptor = biological target: T2, Adrenergic α2A Receptor (Homo sapiens, UniProt P08913); assay: Radioligand binding, [3H] MK-912
T2 construct: expressed in transfected cells; host or cells: insect Sf9 cells
T2 sequence (P08913 1-465): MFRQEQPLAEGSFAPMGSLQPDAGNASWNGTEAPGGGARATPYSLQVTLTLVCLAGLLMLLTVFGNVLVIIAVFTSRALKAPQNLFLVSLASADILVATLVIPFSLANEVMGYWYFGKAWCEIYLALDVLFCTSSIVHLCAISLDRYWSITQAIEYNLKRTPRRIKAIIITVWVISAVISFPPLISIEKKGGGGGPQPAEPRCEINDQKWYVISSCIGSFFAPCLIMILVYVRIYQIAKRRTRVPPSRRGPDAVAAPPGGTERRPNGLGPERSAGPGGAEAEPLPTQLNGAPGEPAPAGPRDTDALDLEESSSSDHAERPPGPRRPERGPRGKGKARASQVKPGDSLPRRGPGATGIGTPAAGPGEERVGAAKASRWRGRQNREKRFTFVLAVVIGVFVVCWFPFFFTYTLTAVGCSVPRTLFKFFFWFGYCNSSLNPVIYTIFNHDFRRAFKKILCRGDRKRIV
Protocol: as §1
(a) Adrenergic α2A Receptor:
(§2) • Reference: S. Uhlçn et al. J. Pharmacol. Exp. Ther., 271:1558-1565 (1994) • Source: Human recombinant insect Sf9 cells • Ligand: 1 nM [^3H]

Adrenergic α2C Receptor = biological target: T3, Adrenergic α2C Receptor (Homo sapiens, UniProt P18825); assay: Radioligand binding, [3H] MK-912
T3 construct: expressed in transfected cells; host or cells: insect Sf9 cells
T3 sequence (P18825 1-462): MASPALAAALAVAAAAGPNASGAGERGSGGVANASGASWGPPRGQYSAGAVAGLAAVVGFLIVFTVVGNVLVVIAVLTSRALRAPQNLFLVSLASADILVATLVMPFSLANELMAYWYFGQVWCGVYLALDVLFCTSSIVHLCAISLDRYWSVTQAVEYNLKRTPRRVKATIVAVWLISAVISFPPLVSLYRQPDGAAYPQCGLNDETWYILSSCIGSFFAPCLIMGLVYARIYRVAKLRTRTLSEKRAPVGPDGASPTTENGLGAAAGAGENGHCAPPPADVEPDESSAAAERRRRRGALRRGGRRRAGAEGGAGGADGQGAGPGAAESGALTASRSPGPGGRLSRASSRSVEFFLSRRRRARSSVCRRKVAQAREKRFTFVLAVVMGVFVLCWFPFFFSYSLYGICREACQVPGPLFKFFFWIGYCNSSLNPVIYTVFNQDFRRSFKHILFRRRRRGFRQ
Protocol: as §1
(c) Adrenergic α2C Receptor:
as §2

Dopamine D4.2 Receptor = biological target: T4, Dopamine D4.2 Receptor (Homo sapiens, UniProt P21917, DEL265-296); assay: Radioligand binding, [3H] Spiperone
T4 construct: expressed in transfected cells; host or cells: CHO-K1 cells
T4 sequence (P21917 with tags, fused parts or gaps DEL265-296): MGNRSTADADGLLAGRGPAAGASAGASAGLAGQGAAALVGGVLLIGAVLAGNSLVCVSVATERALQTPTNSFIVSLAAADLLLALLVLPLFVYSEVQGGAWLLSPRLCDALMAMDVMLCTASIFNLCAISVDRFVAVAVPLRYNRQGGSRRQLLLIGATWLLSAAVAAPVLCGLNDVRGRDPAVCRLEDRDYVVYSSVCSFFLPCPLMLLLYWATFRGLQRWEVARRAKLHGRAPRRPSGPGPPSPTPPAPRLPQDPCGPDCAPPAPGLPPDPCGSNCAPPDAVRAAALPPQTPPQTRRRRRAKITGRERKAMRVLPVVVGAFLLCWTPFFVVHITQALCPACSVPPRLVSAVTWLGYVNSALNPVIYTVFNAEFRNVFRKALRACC
Protocol: as §1
(h) Dopamine D4.2 Receptor:
• Reference: Van Tol et al., Nature, 350:610-614 (1991) • Source: Human recombinant CHO-K1 cells • Ligand: 0.5 nM [^3H]

[1] = test system: Imidazoline I2 (Peripheral) Receptor; assay: Radioligand binding, [3H] Idazoxan, kidney; parameters: species or system Wistar rat
Protocol: as §1
(I) Imidazoline I2 (Peripheral) Receptor:
• Reference: Brown et al., Brit. J. Pharmacol., 99:803-809, (1990) • Source: Wistar rat kidney • Ligand: 5 nM [^3H]

Dopamine D4.4 Receptor = biological target: T5, Dopamine D4.4 Receptor (Homo sapiens, UniProt P21917); assay: Radioligand binding, [3H] Spiperone
T5 construct: expressed in transfected cells; host or cells: CHO-K1 cells
T5 sequence (P21917 1-419): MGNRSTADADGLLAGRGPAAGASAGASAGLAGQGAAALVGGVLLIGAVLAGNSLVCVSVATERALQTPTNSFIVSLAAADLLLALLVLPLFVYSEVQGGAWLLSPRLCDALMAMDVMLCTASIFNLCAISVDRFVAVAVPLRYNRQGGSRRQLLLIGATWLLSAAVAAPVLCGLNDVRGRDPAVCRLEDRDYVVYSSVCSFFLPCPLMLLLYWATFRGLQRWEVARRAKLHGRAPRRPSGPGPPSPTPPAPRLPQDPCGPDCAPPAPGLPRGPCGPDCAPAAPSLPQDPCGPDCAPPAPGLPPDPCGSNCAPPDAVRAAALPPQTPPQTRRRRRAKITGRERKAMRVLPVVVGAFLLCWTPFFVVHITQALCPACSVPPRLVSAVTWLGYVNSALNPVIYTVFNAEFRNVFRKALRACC
Protocol: as §1
(i) Dopamine D4.4 Receptor:
• Reference: Van Tol et al., Nature, 350:610-614 (1991) • Source: Human recombinant CHO-K1 cells • Ligand: 1.2 nM [^3H]

| % inhibition, (j) D4.7 Receptor (Dopamine D4.7 Receptor) | % inhibition, (g) D3 Receptor (Dopamine D3 Receptor) | % inhibition, (a) α2A Receptor (Adrenergic α2A Receptor) | % inhibition, (c) α2C Receptor (Adrenergic α2C Receptor) | % inhibition, (h) D4.2 Receptor (Dopamine D4.2 Receptor) | % inhibition, (l) I2 Receptor (peripheral) [1] | % inhibition, (i) D4.4 Receptor (Dopamine D4.4 Receptor) | SMILES |
| --- | --- | --- | --- | --- | --- | --- | --- |
| 25% | 65% | 13% | −7% | 55% | 24% | 33% | COc1cc2c(cc1O)[C@@H]1C[C@@H](O)[C@H](CC(C)C)CN1CC2 (single isomer, unassigned) [(+)-10-desmethyl-γ-dihydrotetrabenazine] |
| 87% | 101% | 69% | 60% | 90% | 25% | 81% | COc1cc2c(cc1O)[C@@H]1C[C@@H](O)[C@H](CC(C)C)CN1CC2 (single isomer, unassigned) [(−)-10-desmethyl-γ-dihydrotetrabenazine] |

Source: patent US20100087475A1, “PHARMACEUTICAL COMPOUNDS” (Biovali Laboratories International (Barbados) S.R.L., priority 2008, published 2010)
